Consider eleven compounds from ChEMBL document CHEMBL1132753, “Structure-activity relationship study of asiatic acid derivatives against beta amyloid (A beta)-induced neurotoxicity” (2000).

The experiment relates to B103 cell line. Kind of experiment: In vitro percent protective effect against Amyloid Beta(A beta)-induced neurotoxicity in B103 cells. It counts as functional, Rattus norvegicus. Further details: concentration or dose not given beside the values.
Consider `C[C@@H]1CC[C@]2(C(=O)O)CC[C@]3(C)C(=CCC4[C@@]5(C)CC(=O)[C@H](O)[C@@](C)(CO)C5CC[C@]43C)C2[C@H]1C` (stereo partly specified), for which the Protection is on record as 50%.

`CC(=O)O[C@@H]1C[C@@]2(C)C(CC[C@]3(C)C2CC=C2C4[C@@H](C)[C@H](C)CC[C@]4(C(=O)O)CC[C@]23C)[C@](C)(CO)[C@H]1O` (stereo partly specified): the Protection is given as 22%.

In turn, `CCCCCCCCOCOC(=O)[C@]12CC[C@@H](C)[C@H](C)C1C1=CCC3[C@@]4(C)CC(O)[C@H](O)[C@@](C)(CO)C4CC[C@@]3(C)[C@]1(C)CC2` (stereo partly specified) displayed a Protection of 22%.

`C[C@@H]1CC[C@]2(C(=O)O)CC[C@]3(C)C(=CCC4[C@@]5(C)C[C@@H](O)[C@@H]6OC(C)(C)OC[C@@]6(C)C5CC[C@]43C)C2[C@H]1C` (stereo partly specified) yielded a Protection of 66%.

Turning to `COC(=O)[C@]12CC[C@@H](C)[C@H](C)C1C1=CCC3[C@@]4(C)C[C@@H](O)[C@H](O)[C@@](C)(CO)C4CC[C@@]3(C)[C@]1(C)CC2` (stereo partly specified), the Protection was 58%.

`C[C@@H]1CC[C@]2(C(=O)O)CC[C@]3(C)C(=CCC4[C@@]5(C)CCCC(C)(C)C5CC[C@]43C)C2[C@H]1C` (stereo partly specified): the Protection worked out at 40%.

`C[C@@H]1CC[C@]2(C(=O)OC3CCCCO3)CC[C@]3(C)C(=CCC4[C@@]5(C)C[C@@H](O)[C@H](O)[C@@](C)(CO)C5CC[C@]43C)C2[C@H]1C` (stereo partly specified) registered a Protection of 92%.

Regarding `C[C@H]1[C@H](C)CC[C@]2(C(=O)O)CC[C@]3(C)C(=CC[C@@H]4[C@@]5(C)CC[C@H](O)[C@@](C)(CO)[C@@H]5CC[C@]43C)[C@H]12`, the Protection came out at 87%.

Take `C[C@H]1[C@H](C)CC[C@]2(C(=O)O)CC[C@]3(C)C(=CC[C@@H]4[C@@]5(C)C[C@@H](O)[C@H](O)[C@@](C)(CO)[C@@H]5CC[C@]43C)[C@H]12` [ASIATIC ACID]: the Protection is reported as 97%.

Compound `C[C@H]1[C@H](C)CC[C@]2(C(=O)O[C@@H]3O[C@H](CO[C@@H]4O[C@H](CO)[C@@H](O[C@@H]5O[C@H](C)[C@H](O)[C@@H](O)[C@H]5O)[C@H](O)[C@H]4O)[C@@H](O)[C@H](O)[C@H]3O)CC[C@]3(C)C(=CC[C@@H]4[C@@]5(C)C[C@@H](O)[C@H](O)[C@@](C)(CO)[C@@H]5CC[C@]43C)[C@H]12` [ASIATICOSIDE] registered a Protection of 24%.

Compound `C[C@H]1[C@H](C)CC[C@]2(C(=O)O)CC[C@]3(C)C(=CC[C@@H]4[C@@]5(C)C[C@@H](O)[C@H](O)[C@@](C)(CO)[C@@H]5[C@H](O)C[C@]43C)[C@H]12` [MADECASSIC ACID] displayed a Protection of 56%.
